From ChEMBL document CHEMBL1201861, “Genomics of Drug Sensitity in Cancer screening data, Wellcome Trust Sanger Institute”

Experiments:
Experiment in all cases: cells
Assay type in all cases: functional, cell-based
Settings in all cases: Homo sapiens
[1] = tested on: RPMI-8226
Description: SANGER: Inhibition of human RPMI-8226 cell growth in a cell viability assay.

[2] = tested on: NMC-G1;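 further: growth inhibition of the NMC-G1 cell line, measured with a cell viability read-out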
Description: SANGER: Inhibition of human NMC-G1 cell growth in a cell viability assay.

[3] = tested on: ACN;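 further: growth inhibition of the human ACN cell line, read out via cell viability testing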
Description: SANGER: Inhibition of human ACN cell growth in a cell viability assay.

[4] = tested on: MEG-01;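 further: growth inhibition of MEG-01 cells, read out by a cell viability assay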
Description: SANGER: Inhibition of human MEG-01 cell growth in a cell viability assay.

[5] = tested on: KNS-42;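 further: growth inhibition of KNS-42 cells, read out with a cell viability assay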
Description: SANGER: Inhibition of human KNS-42 cell growth in a cell viability assay.

[6] = tested on: J-RT3-T3-5;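 further: cell viability assay measuring growth inhibition of human J-RT3-T3-5 cells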
Description: SANGER: Inhibition of human J-RT3-T3-5 cell growth in a cell viability assay.

[7] = tested on: AM-38;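 further: growth inhibition of AM-38 cells of human origin, read out by a cell viability assay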
Description: SANGER: Inhibition of human AM-38 cell growth in a cell viability assay.

[8] = tested on: ATN-1;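 further: growth inhibition of human ATN-1 cells, read out with a cell viability assay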
Description: SANGER: Inhibition of human ATN-1 cell growth in a cell viability assay.

[9] = tested on: KINGS-1;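 further: cell viability assay measuring suppression of KINGS-1 cell growth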
Description: SANGER: Inhibition of human KINGS-1 cell growth in a cell viability assay.

[10] = tested on: SF-268;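 further: growth inhibition of SF-268 cells determined with a cell viability assay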
Description: SANGER: Inhibition of human SF268 cell growth in a cell viability assay.

[11] = tested on: NCI-H1838;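 further: growth inhibition of NCI-H1838 cells, determined with a cell viability readout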
Description: SANGER: Inhibition of human NCI-H1838 cell growth in a cell viability assay.

[12] = tested on: KM-H2;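 further: growth inhibition of KM-H2 cells, read out by a cell viability assay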
Description: SANGER: Inhibition of human KM-H2 cell growth in a cell viability assay.

[13] = tested on: 8-MG-BA;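 further: growth inhibition of 8-MG-BA cells, read out with a cell viability assay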
Description: SANGER: Inhibition of human 8-MG-BA cell growth in a cell viability assay.

[14] = tested on: NTERA-2-cl-D1;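 further: inhibition of cell growth, measured with a cell viability assay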
Description: SANGER: Inhibition of human NTERA-S-cl-D1 cell growth in a cell viability assay.

[15] = tested on: ES1;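 further: growth inhibition of ES1 cells, read out with a cell viability assay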
Description: SANGER: Inhibition of human ES1 cell growth in a cell viability assay.

[16] = tested on: A101D;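 further: growth inhibition of the cell line, measured with a viability assay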
Description: SANGER: Inhibition of human A101D cell growth in a cell viability assay.

[17] = tested on: A4-Fuk;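 further: growth inhibition of A4-Fuk cells, read out by a cell viability assay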
Description: SANGER: Inhibition of human A4-Fuk cell growth in a cell viability assay.

[18] = tested on: VA-ES-BJ;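 further: growth inhibition of the VA-ES-BJ cell line, read out by a cell viability assay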
Description: SANGER: Inhibition of human VA-ES-BJ cell growth in a cell viability assay.

[19] = tested on: KURAMOCHI;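 further: growth inhibition of KURAMOCHI cells, read out with a cell viability assay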
Description: SANGER: Inhibition of human KURAMOCHI cell growth in a cell viability assay.

[20] = tested on: BE-13;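 further: growth inhibition of human BE-13 cells, measured with a cell viability assay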
Description: SANGER: Inhibition of human BE-13 cell growth in a cell viability assay.

[21] = tested on: JVM-2;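 further: growth inhibition of JVM-2 cells determined by a cell viability assay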
Description: SANGER: Inhibition of human JVM-2 cell growth in a cell viability assay.

[22] = tested on: K5
Description: SANGER: Inhibition of human K5 cell growth in a cell viability assay.

[23] = tested on: SCH;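 further: growth inhibition of human SCH cells, read out in a cell viability assay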
Description: SANGER: Inhibition of human SCH cell growth in a cell viability assay.

[24] = tested on: ONS-76;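 further: growth inhibition of human ONS-76 cells, read out with a cell viability assay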
Description: SANGER: Inhibition of human ONS-76 cell growth in a cell viability assay.

[25] = tested on: K562
Description: SANGER: Inhibition of human K-562 cell growth in a cell viability assay.

[26] = tested on: EC-GI-10
Description: SANGER: Inhibition of human EC-GI-10 cell growth in a cell viability assay.

[27] = tested on: CGTH-W-1;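 further: growth inhibition of human CGTH-W-1 cells measured by cell viability assay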
Description: SANGER: Inhibition of human CGTH-W-1 cell growth in a cell viability assay.

[28] = tested on: SW982;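 further: growth inhibition of SW982 cells, read out with a cell viability assay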
Description: SANGER: Inhibition of human SW982 cell growth in a cell viability assay.

[29] = tested on: no-11;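 further: growth inhibition of human NO-11 cells, read out with a cell viability assay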
Description: SANGER: Inhibition of human no-11 cell growth in a cell viability assay.

[30] = tested on: DU-4475
Description: SANGER: Inhibition of human DU-4475 cell growth in a cell viability assay.

[31] = tested on: MOLT-16;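 further: growth inhibition of human MOLT-16 cells, read out with a cell viability assay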
Description: SANGER: Inhibition of human MOLT-16 cell growth in a cell viability assay.

[32] = tested on: KALS-1;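 further: growth inhibition of KALS-1 cells, determined with a cell viability assay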
Description: SANGER: Inhibition of human KALS-1 cell growth in a cell viability assay.

[33] = tested on: CCRF-CEM;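 further: inhibition of CCRF-CEM cell growth, measured by a cell viability assay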
Description: SANGER: Inhibition of human CCRF-CEM cell growth in a cell viability assay.

[34] = tested on: EW-16;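 further: growth inhibition of human EW-16 cells, read out as cell viability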
Description: SANGER: Inhibition of human EW-16 cell growth in a cell viability assay.

[35] = tested on: SK-PN-DW;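 further: growth inhibition measured with a viability assay on these cells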
Description: SANGER: Inhibition of human SK-PN-DW cell growth in a cell viability assay.

[36] = tested on: SK-MEL-1;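 further: growth inhibition of human SK-MEL-1 cells, read out by a cell viability assay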
Description: SANGER: Inhibition of human SK-MEL-1 cell growth in a cell viability assay.

[37] = tested on: NCI-H69;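 further: growth inhibition of the cell line, read out with a cell viability assay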
Description: SANGER: Inhibition of human NCI-H69 cell growth in a cell viability assay.

[38] = tested on: TE-10;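 further: growth inhibition of TE-10 cells, measured by a cell viability assay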
Description: SANGER: Inhibition of human TE-10 cell growth in a cell viability assay.

[39] = tested on: MFH-ino;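 further: growth inhibition of human MFH-ino cells, read out by a cell viability assay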
Description: SANGER: Inhibition of human MFH-ino cell growth in a cell viability assay.

[40] = tested on: SJSA-1;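 further: growth inhibition of human SJSA-1 cells, read out through a cell viability measurement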
Description: SANGER: Inhibition of human SJSA-1 cell growth in a cell viability assay.

[41] = tested on: CTB-1
Description: SANGER: Inhibition of human CTB-1 cell growth in a cell viability assay.

[42] = tested on: EW-1;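 further: growth inhibition of the human EW-1 cell line, read out by a cell viability assay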
Description: SANGER: Inhibition of human EW-1 cell growth in a cell viability assay.

[43] = tested on: MN-60;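 further: growth inhibition of the MN-60 cell line, determined with a cell viability assay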
Description: SANGER: Inhibition of human MN-60 cell growth in a cell viability assay.

[44] = tested on: COLO-824
Description: SANGER: Inhibition of human COLO-824 cell growth in a cell viability assay.

[45] = tested on: LS-1034
Description: SANGER: Inhibition of human LS-1034 cell growth in a cell viability assay.

[46] = tested on: TGBC1TKB;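 further: growth inhibition of TGBC1TKB cells, read out by a cell viability assay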
Description: SANGER: Inhibition of human TGBC1TKB cell growth in a cell viability assay.

[47] = tested on: LAN-6;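 further: growth inhibition of LAN-6 cells, determined with a cell viability assay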
Description: SANGER: Inhibition of human LAN-6 cell growth in a cell viability assay.

[48] = tested on: NCI-H209;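 further: growth inhibition of human NCI-H209 cells, measured by a cell viability assay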
Description: SANGER: Inhibition of human NCI-H209 cell growth in a cell viability assay.

[49] = tested on: OMC-1;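 further: growth inhibition of the OMC-1 cell line, measured by a cell viability assay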
Description: SANGER: Inhibition of human OMC-1 cell growth in a cell viability assay.

[50] = tested on: NCI-H226;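 further: cell viability read-out used to gauge growth inhibition of the cells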
Description: SANGER: Inhibition of human NCI-H226 cell growth in a cell viability assay.

[51] = tested on: LOX IMVI
Description: SANGER: Inhibition of human LOXIMVI cell growth in a cell viability assay.

[52] = tested on: KLE;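 further: growth inhibition of human KLE cells, read out with a cell viability assay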
Description: SANGER: Inhibition of human KLE cell growth in a cell viability assay.

[53] = tested on: SK-NEP-1;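 further: growth inhibition of human SK-NEP-1 cells, read out by a cell viability assay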
Description: SANGER: Inhibition of human SK-NEP-1 cell growth in a cell viability assay.

[54] = tested on: SW872;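 further: growth inhibition of SW872 cells, read out by a viability assay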
Description: SANGER: Inhibition of human SW872 cell growth in a cell viability assay.

[55] = tested on: SNU-C2B;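 further: cell viability readout used to measure compound-driven suppression of SNU-C2B cell proliferation, IC50 marking half-maximal growth inhibition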
Description: SANGER: Inhibition of human SNU-C2B cell growth in a cell viability assay.

[56] = tested on: MMAC-SF;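 further: growth inhibition of human MMAC-SF cells, read out with a cell viability assay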
Description: SANGER: Inhibition of human MMAC-SF cell growth in a cell viability assay.

[57] = tested on: HT
Description: SANGER: Inhibition of human HT cell growth in a cell viability assay.

[58] = tested on: KS-1
Description: SANGER: Inhibition of human KS-1 cell growth in a cell viability assay.

[59] = tested on: TE-5
Description: SANGER: Inhibition of human TE-5 cell growth in a cell viability assay.

[60] = tested on: NCI-H1648
Description: SANGER: Inhibition of human NCI-H1648 cell growth in a cell viability assay.

[61] = tested on: LC-2-ad
Description: SANGER: Inhibition of human LC-2-ad cell growth in a cell viability assay.

[62] = tested on: U-266
Description: SANGER: Inhibition of human U-266 cell growth in a cell viability assay.

[63] = tested on: 697
Description: SANGER: Inhibition of human 697 cell growth in a cell viability assay.

[64] = tested on: GI-1
Description: SANGER: Inhibition of human GI-1 cell growth in a cell viability assay.

[65] = tested on: NCI-H1581
Description: SANGER: Inhibition of human NCI-H1581 cell growth in a cell viability assay.

[66] = tested on: GOTO
Description: SANGER: Inhibition of human GOTO cell growth in a cell viability assay.

C/C=C(/C)C(=O)O[C@H]1C(C)=C2[C@H]([C@@H]1OC(=O)CCCCCCC)[C@@](C)(OC(C)=O)C[C@H](OC(=O)CCC)[C@@]1(O)[C@H]2OC(=O)[C@@]1(C)O [THAPSIGARGIN]
IC50 [1]: 0.0149 µM
IC50 [2]: 0.0215 µM
IC50 [3]: 0.00469 µM
IC50 [4]: 0.0108 µM
IC50 [5]: 0.0169 µM
IC50 [6]: 0.141 µM
IC50 [7]: 0.0148 µM
IC50 [8]: 0.032 µM
IC50 [9]: 0.00759 µM
IC50 [10]: 0.00226 µM
IC50 [11]: > 0.512 µM
IC50 [12]: < 0.002 µM
IC50 [13]: 0.00199 µM
IC50 [14]: < 0.002 µM
IC50 [15]: < 0.002 µM
IC50 [16]: 0.00482 µM
IC50 [17]: < 0.002 µM
IC50 [18]: 0.0182 µM
IC50 [19]: 0.00544 µM
IC50 [20]: 0.00735 µM
IC50 [21]: > 0.512 µM
IC50 [22]: > 0.512 µM
IC50 [23]: > 0.512 µM
IC50 [24]: 0.00998 µM
IC50 [25]: 0.305 µM
IC50 [26]: 0.355 µM
IC50 [27]: < 0.002 µM
IC50 [28]: < 0.002 µM
IC50 [29]: 0.0589 µM
IC50 [30]: 0.00597 µM
IC50 [31]: 0.00452 µM
IC50 [32]: 0.000516 µM
IC50 [33]: 0.0309 µM
IC50 [34]: 0.000598 µM
IC50 [35]: < 0.002 µM
IC50 [36]: > 0.512 µM
IC50 [37]: 0.0567 µM
IC50 [38]: 0.00157 µM
IC50 [39]: 0.00132 µM
IC50 [40]: 0.003 µM
IC50 [41]: 0.017 µM
IC50 [42]: 0.00388 µM
IC50 [43]: 0.0692 µM
IC50 [44]: 0.0646 µM
IC50 [45]: 0.029 µM
IC50 [46]: 0.000509 µM
IC50 [47]: > 0.512 µM
IC50 [48]: 0.0181 µM
IC50 [49]: 0.083 µM
IC50 [50]: 0.00241 µM
IC50 [51]: 0.00298 µM
IC50 [52]: 0.0702 µM
IC50 [53]: 0.0159 µM
IC50 [54]: 0.00578 µM
IC50 [55]: 0.0124 µM
IC50 [56]: 0.0283 µM
IC50 [57]: 0.0057 µM
IC50 [58]: 0.00361 µM
IC50 [59]: > 0.512 µM
IC50 [60]: 0.00144 µM
IC50 [61]: 0.00464 µM
IC50 [62]: 0.00291 µM
IC50 [63]: < 0.002 µM
IC50 [64]: 0.000549 µM
IC50 [65]: 0.00055 µM
IC50 [66]: 0.0505 µM

C[C@]1(c2nc3c(C(N)=O)cccc3[nH]2)CCCN1 [VELIPARIB]
IC50 [1]: > 5 µM
IC50 [2]: > 5 µM
IC50 [3]: > 5 µM
IC50 [4]: > 5 µM
IC50 [5]: > 5 µM
IC50 [6]: > 5 µM
IC50 [7]: > 5 µM
IC50 [8]: > 5 µM
IC50 [9]: > 5 µM
IC50 [10]: > 5 µM
IC50 [11]: > 5 µM
IC50 [12]: > 5 µM
IC50 [13]: > 5 µM
IC50 [14]: > 5 µM
IC50 [15]: > 5 µM
IC50 [16]: > 5 µM
IC50 [17]: > 5 µM
IC50 [18]: > 5 µM
IC50 [19]: > 5 µM
IC50 [20]: > 5 µM
IC50 [21]: > 5 µM
IC50 [22]: > 5 µM
IC50 [23]: > 5 µM
IC50 [24]: > 5 µM
IC50 [25]: > 5 µM
IC50 [26]: > 5 µM
IC50 [27]: > 5 µM
IC50 [28]: > 5 µM
IC50 [29]: > 5 µM
IC50 [30]: > 5 µM
IC50 [31]: > 5 µM
IC50 [32]: > 5 µM
IC50 [33]: > 5 µM
IC50 [34]: > 5 µM
IC50 [35]: > 5 µM
IC50 [36]: > 5 µM
IC50 [37]: > 5 µM
IC50 [38]: > 5 µM
IC50 [39]: > 5 µM
IC50 [40]: > 5 µM
IC50 [41]: > 5 µM
IC50 [42]: > 5 µM
IC50 [43]: > 5 µM
IC50 [44]: > 5 µM
IC50 [45]: > 5 µM
IC50 [46]: > 5 µM
IC50 [47]: > 5 µM
IC50 [48]: > 5 µM
IC50 [49]: > 5 µM
IC50 [50]: > 5 µM
IC50 [51]: > 5 µM
IC50 [52]: > 5 µM
IC50 [53]: > 5 µM
IC50 [54]: > 5 µM
IC50 [55]: > 5 µM
IC50 [56]: > 5 µM
IC50 [57]: > 5 µM
IC50 [58]: > 5 µM
IC50 [59]: > 5 µM
IC50 [60]: > 5 µM
IC50 [61]: > 5 µM
IC50 [62]: > 5 µM
IC50 [63]: > 5 µM
IC50 [64]: > 5 µM
IC50 [65]: > 5 µM
IC50 [66]: > 5 µM
